Results taken from publication PMC6151383 (Molecules : A Journal of Synthetic Chemistry and Natural …, 2017).
≈ marks a conversion by molar mass, not a printed value. Read-outs that look alike come from different tables or passages of the source.

Assays:
[1] = system: Trichophyton interdigitale 445; experiment: Antifungal microdilution broth MIC, T. interdigitale; format: cell-based; details: Trichophyton interdigitale; for SI for TI: SI = IC50 (HepG2)/MIC; for MIC: 445
[2] = system: Staphylococcus aureus CCM 4516/08; experiment: Antibacterial microdilution broth MIC, S. aureus; format: cell-based; details: Staphylococcus aureus
[3] = system: Escherichia coli CCM 4517; experiment: Antibacterial microdilution broth MIC, E. coli; format: cell-based; details: Escherichia coli, CCM4517; 48 h incubation; read-out: MIC EC 48 h
Trichosporon asahii 1188 = experiment: Antifungal microdilution broth MIC, T. asahii; format: cell-based; details: Trichosporon asahii, 1188; 48 h incubation; read-out: MIC TA 48 h
M. kansasii 6509/96 = experiment: In vitro antimycobacterial MIC, M. kansasii clinical isolate; format: cell-based; details: Mycobacterium kansasii
[4] = system: Aspergillus fumigatus 231; experiment: Antifungal microdilution broth MIC, A. fumigatus; format: cell-based
[5] = system: ESBL-positive Klebsiella pneumoniae J 14368/08
Candida sp. = experiment: Selectivity index for Candida sp. (IC50 HepG2/MIC); format: cell-based; details: all Candida species
[6] = system: Mycobacterium avium 330/88; experiment: In vitro antimycobacterial MIC, M. avium; format: cell-based
[7] = system: Mycobacterium kansasii 235/80; experiment: In vitro antimycobacterial MIC, M. kansasii 235/80; format: cell-based
Candida krusei E28 = experiment: Antifungal microdilution broth MIC, C. krusei; format: cell-based; details: Pichia kudriavzevii, E28; 48 h incubation; read-out: MIC CK 48 h
[8] = system: Lichtheimia corymbifera 272; experiment: Antifungal microdilution broth MIC, L. corymbifera; format: cell-based; details: Lichtheimia corymbifera, 272; 48 h incubation; read-out: MIC LC 48 h
[9] = system: Staphylococcus epidermidis H 6966/08; experiment: Antibacterial microdilution broth MIC, S. epidermidis; format: cell-based; details: Staphylococcus epidermidis
[10] = system: Enterococcus faecalis J 14365/08; experiment: Antibacterial microdilution broth MIC, E. faecalis; format: cell-based; details: Enterococcus faecalis, J14365/08; 48 h incubation; read-out: MIC EF 48 h
[11] = system: Pseudomonas aeruginosa CCM 1961; experiment: Antibacterial microdilution broth MIC, P. aeruginosa; format: cell-based; details: Pseudomonas aeruginosa, CCM1961; 48 h incubation; read-out: MIC PA 48 h
[12] = system: Klebsiella pneumoniae D 11750/08
Candida tropicalis 156 = experiment: Antifungal microdilution broth MIC, C. tropicalis; format: cell-based; details: Candida tropicalis, 156; 48 h incubation; read-out: MIC CT 48 h
[13] = system: Mycobacterium tuberculosis 331/88 (H37Rv); experiment: In vitro antimycobacterial MIC, M. tuberculosis; format: cell-based
[14] = system: Candida albicans ATCC 44859; experiment: Antifungal microdilution broth MIC, C. albicans; format: cell-based; details: ATCC44859, 48 h incubation, read-out: MIC CA 48 h
Candida glabrata 20/I = experiment: Antifungal microdilution broth MIC, C. glabrata; format: cell-based; details: Nakaseomyces glabratus, 48 h incubation, read-out: MIC CG 48 h
M. tuberculosis and NTM = experiment: Antimycobacterial activity, panel; format: cell-based; details: Mycobacterium tuberculosis; range over all four mycobacterial strains and incubation times; read-out: MIC, M. tuberculosis and NTM
[15] = 72 h incubation, read-out: MIC TI 72 h
[16] = 120 h incubation, read-out: MIC TI 120 h
[17] = CCM4516, 48 h incubation, read-out: MIC SA 48 h
[18] = 6509/96, 168 h, 7 d incubation, read-out: MIC M. kansasii 6509/96 7 d
[19] = 6509/96, 336 h, 14 d incubation, read-out: MIC M. kansasii 6509/96 14 d
[20] = 6509/96, 504 h, 21 d incubation, read-out: MIC M. kansasii 6509/96 21 d
[21] = Aspergillus fumigatus, 231, 48 h incubation, read-out: MIC AF 48 h
[22] = 330/88, 336 h, 14 d incubation, read-out: MIC M. avium 330/88 14 d
[23] = 330/88, 504 h, 21 d incubation, read-out: MIC M. avium 330/88 21 d
[24] = 235/80, 168 h, 7 d incubation, read-out: MIC M. kansasii 235/80 7 d
[25] = 235/80, 336 h, 14 d incubation, read-out: MIC M. kansasii 235/80 14 d
[26] = 235/80, 504 h, 21 d incubation, read-out: MIC M. kansasii 235/80 21 d
[27] = H6966/08, 48 h incubation, read-out: MIC SE 48 h
[28] = 336 h, 14 d incubation, read-out: MIC Mtb. 331/88 14 d
[29] = 504 h, 21 d incubation, read-out: MIC Mtb. 331/88 21 d

SMILES | MIC [1, 15] [µM] | MIC [1, 16] [µM] | MIC [2, 17] [µM] | MIC [3] [µM] | MIC (M. kansasii 6509/96; [18]) [µM] | MIC (M. kansasii 6509/96; [19]) [µM] | MIC (M. kansasii 6509/96; [20]) [µM] | MIC KP-E 24 h [5] [µM] | MIC KP-E 48 h [5] [µM] | MIC [6, 22] [µM] | MIC [6, 23] [µM] | MIC [7, 24] [µM] | MIC [7, 25] [µM] | MIC [7, 26] [µM] | MIC [10] [µM] | MIC [11] [µM] | MIC KP 24 h [12] [µM] | MIC KP 48 h [12] [µM] | MIC [13, 28] [µM] | MIC [13, 29] [µM] | also measured
O=S(=O)(Nc1ncccn1)c1ccc(N=Cc2cc(F)ccc2O)cc1 [Compound 2b, 4-[(5-Fluoro-2-hydroxybenzylidene)amino]-N-(pyrimidin-2-yl)benzenesulfonamide] | > 250 | > 250 | > 250 | > 250 | 125 (≈ 46.5 µg/mL) | 250 (≈ 93.1 µg/mL) | 250 (≈ 93.1 µg/mL) | >250 | >250 | 500 (≈ 186 µg/mL) | 1000 (≈ 372 µg/mL) | 62.5 (≈ 23.3 µg/mL) | 125 (≈ 46.5 µg/mL) | 250 (≈ 93.1 µg/mL) | > 250 | > 250 | >250 | >250 | 125 (≈ 46.5 µg/mL) | 125 (≈ 46.5 µg/mL) | SI for TI [1]: inactive; MIC (Trichosporon asahii 1188): > 250 µM; MIC [4, 21]: > 250 µM; SI for Candida sp. (Candida sp.): inactive; MIC (Candida krusei E28): > 250 µM; MIC [8]: > 250 µM; MIC [9, 27]: > 250 µM; MIC (Candida tropicalis 156): > 250 µM; MIC [14]: > 250 µM; MIC (Candida glabrata 20/I): > 250 µM
Cc1ccc(O)c(C=Nc2ccc(S(=O)(=O)Nc3ncccn3)cc2)c1 [Compound 2g, 4-[(2-Hydroxy-5-methylbenzylidene)amino]-N-(pyrimidin-2-yl)benzenesulfonamide] | > 500 | > 500 | > 250 | > 250 | 62.5 (≈ 23 µg/mL) | 62.5 (≈ 23 µg/mL) | 125 (≈ 46.1 µg/mL) | >250 | >250 | 500 (≈ 184 µg/mL) | 1000 (≈ 368 µg/mL) | 125 (≈ 46.1 µg/mL) | 125 (≈ 46.1 µg/mL) | 250 (≈ 92.1 µg/mL) | > 250 | > 250 | >250 | >250 | 125 (≈ 46.1 µg/mL) | 125 (≈ 46.1 µg/mL) | SI for TI [1]: inactive; MIC (Trichosporon asahii 1188): > 500 µM; MIC [4, 21]: > 500 µM; SI for Candida sp. (Candida sp.): inactive; MIC (Candida krusei E28): > 500 µM; MIC [8]: > 500 µM; MIC ([9]; H6966/08, 24 h, read-out: MIC SE 24 h): 125 µM (≈ 46.1 µg/mL); MIC ([9]; H6966/08, 48 h, read-out: MIC SE 48 h): 125 µM (≈ 46.1 µg/mL); MIC (Candida tropicalis 156): > 500 µM; MIC [14]: > 500 µM; MIC (Candida glabrata 20/I): > 500 µM
O=S(=O)(Nc1ncccn1)c1ccc(N=Cc2c(O)cccc2Cl)cc1 [Compound 2k, 4-[(2-Chloro-6-hydroxybenzylidene)amino]-N-(pyrimidin-2-yl)benzenesulfonamide] | > 250 | > 250 | > 250 | > 250 | 62.5 (≈ 24.3 µg/mL) | 125 (≈ 48.6 µg/mL) | 125 (≈ 48.6 µg/mL) | >250 | >250 | 250 (≈ 97.2 µg/mL) | 250 (≈ 97.2 µg/mL) | 62.5 (≈ 24.3 µg/mL) | 125 (≈ 48.6 µg/mL) | 250 (≈ 97.2 µg/mL) | > 250 | > 250 | >250 | >250 | 125 (≈ 48.6 µg/mL) | 125 (≈ 48.6 µg/mL) | SI for TI [1]: inactive; MIC (Trichosporon asahii 1188): > 250 µM; MIC [4, 21]: > 250 µM; SI for Candida sp. (Candida sp.): inactive; MIC (Candida krusei E28): > 250 µM; MIC [8]: > 250 µM; MIC [9, 27]: > 250 µM; MIC (Candida tropicalis 156): > 250 µM; MIC [14]: > 250 µM; MIC (Candida glabrata 20/I): > 250 µM
O=S(=O)(Nc1ncccn1)c1ccc(N=Cc2cc(Cl)cc(I)c2O)cc1 [Compound 2o, 4-[(5-Chloro-2-hydroxy-3-iodobenzylidene)amino]-N-(pyrimidin-2-yl)benzenesulfonamide] | 1.95 (≈ 1 µg/mL) | 1.95 (≈ 1 µg/mL) | 15.6 (≈ 8.04 µg/mL) | 250 (≈ 129 µg/mL) | 62.5 (≈ 32.2 µg/mL) | 125 (≈ 64.3 µg/mL) | 125 (≈ 64.3 µg/mL) | 500 (≈ 257 µg/mL) | 500 (≈ 257 µg/mL) | 500 (≈ 257 µg/mL) | 500 (≈ 257 µg/mL) | 125 (≈ 64.3 µg/mL) | 250 (≈ 129 µg/mL) | 250 (≈ 129 µg/mL) | 250 (≈ 129 µg/mL) | 500 (≈ 257 µg/mL) | 500 (≈ 257 µg/mL) | 500 (≈ 257 µg/mL) | 125 (≈ 64.3 µg/mL) | 125 (≈ 64.3 µg/mL) | MIC (Trichosporon asahii 1188): 7.81 µM (≈ 4.02 µg/mL); MIC ([4]; Aspergillus fumigatus, 231, 24 h, read-out: MIC AF 24 h): 62.5 µM (≈ 32.2 µg/mL); MIC ([4]; Aspergillus fumigatus, 231, 48 h, read-out: MIC AF 48 h): 62.5 µM (≈ 32.2 µg/mL); MIC (Candida krusei E28): 7.81 µM (≈ 4.02 µg/mL); MIC [8]: 250 µM (≈ 129 µg/mL); MIC [9, 27]: 31.2 µM (≈ 16.1 µg/mL); MIC (Candida tropicalis 156): 7.81 µM (≈ 4.02 µg/mL); MIC [14]: 7.81 µM (≈ 4.02 µg/mL); MIC (Candida glabrata 20/I): 7.81 µM (≈ 4.02 µg/mL)
O=[N+]([O-])c1ccc(C=Nc2ccc(S(=O)(=O)Nc3ncccn3)cc2)o1 [Compound 2q, 4-{[(5-Nitrofuran-2-yl)methylene]amino}-N-(pyrimidin-2-yl)benzenesulfonamide] | 250 (≈ 93.3 µg/mL) | 250 (≈ 93.3 µg/mL) |  | > 500 | 62.5 (≈ 23.3 µg/mL) | 62.5 (≈ 23.3 µg/mL) | 125 (≈ 46.7 µg/mL) | 500 (≈ 187 µg/mL) | 500 (≈ 187 µg/mL) | 500 (≈ 187 µg/mL) | 500 (≈ 187 µg/mL) | 125 (≈ 46.7 µg/mL) | 250 (≈ 93.3 µg/mL) | 250 (≈ 93.3 µg/mL) | > 500 | 250 (≈ 93.3 µg/mL) | 500 (≈ 187 µg/mL) | 500 (≈ 187 µg/mL) | 125 (≈ 46.7 µg/mL) | 125 (≈ 46.7 µg/mL) | MIC ([2]; CCM4516, 24 h, read-out: MIC SA 24 h): 125 µM (≈ 46.7 µg/mL); MIC ([2]; CCM4516, 48 h, read-out: MIC SA 48 h): 125 µM (≈ 46.7 µg/mL); MIC (Trichosporon asahii 1188): 500 µM (≈ 187 µg/mL); MIC [4, 21]: 500 µM (≈ 187 µg/mL); MIC (Candida krusei E28): 250 µM (≈ 93.3 µg/mL); MIC [8]: > 500 µM; MIC [9, 27]: 31.2 µM (≈ 11.7 µg/mL); MIC ([9]; H6966/08, incubation time not given, read-out: MIC for S. epidermidis): 31.2 µM (≈ 11.7 µg/mL); MIC (Candida tropicalis 156): 250 µM (≈ 93.3 µg/mL); MIC (M. tuberculosis and NTM): ≥ 62.5 µM; MIC [14]: 250 µM (≈ 93.3 µg/mL); MIC (Candida glabrata 20/I): 250 µM (≈ 93.3 µg/mL)
Nc1ccc(S(=O)(=O)Nc2ncccn2)cc1 [SDZ 1, sulfadiazine, reference compound] |  |  | > 500 | > 500 | 8 (≈ 2 µg/mL) | 8 (≈ 2 µg/mL) | 8 (≈ 2 µg/mL) | >500 | >500 | 62.5 (≈ 15.6 µg/mL) | 62.5 (≈ 15.6 µg/mL) | 16 (≈ 4 µg/mL) | 16 (≈ 4 µg/mL) | 32 (≈ 8.01 µg/mL) | > 500 | > 500 | >500 | >500 | 32 (≈ 8.01 µg/mL) | 62.5 (≈ 15.6 µg/mL) | SI for TI [1]: inactive; SI for Candida sp. (Candida sp.): inactive; MIC [9, 27]: > 500 µM
